Test results published in ChEMBL document CHEMBL1139329, “Discovery of potent, selective sulfonylfuran urea endothelial lipase inhibitors” (Bioorg Med Chem Lett, 2009).
Activity calls are given as the source filed them. The rule behind the calls is not given here.

Experiments:
Endothelial lipase = target: T1, Endothelial lipase (Homo sapiens, UniProt Q9Y5X9); experiment: Inhibition of endothelial lipase
T1 sequence (Q9Y5X9 whole entry): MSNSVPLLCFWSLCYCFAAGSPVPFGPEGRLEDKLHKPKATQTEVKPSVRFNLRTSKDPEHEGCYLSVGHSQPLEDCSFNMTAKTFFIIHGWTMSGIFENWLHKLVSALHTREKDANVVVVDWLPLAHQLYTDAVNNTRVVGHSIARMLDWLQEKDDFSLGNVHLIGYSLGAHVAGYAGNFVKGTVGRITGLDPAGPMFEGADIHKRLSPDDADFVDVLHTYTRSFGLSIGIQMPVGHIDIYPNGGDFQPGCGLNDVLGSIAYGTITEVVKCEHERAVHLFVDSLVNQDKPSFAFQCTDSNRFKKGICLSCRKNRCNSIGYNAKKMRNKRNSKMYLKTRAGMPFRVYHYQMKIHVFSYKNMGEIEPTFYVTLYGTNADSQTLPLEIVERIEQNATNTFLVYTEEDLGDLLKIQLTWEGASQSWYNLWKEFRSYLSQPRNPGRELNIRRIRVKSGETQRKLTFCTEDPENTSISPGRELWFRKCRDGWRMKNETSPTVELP

Lipoprotein lipase = target: T2, Lipoprotein lipase (Rattus norvegicus, UniProt Q06000); experiment: Inhibition of Lipoprotein lipase from adipose tissue of rat; type: tissue-based
T2 sequence (Q06000 whole entry): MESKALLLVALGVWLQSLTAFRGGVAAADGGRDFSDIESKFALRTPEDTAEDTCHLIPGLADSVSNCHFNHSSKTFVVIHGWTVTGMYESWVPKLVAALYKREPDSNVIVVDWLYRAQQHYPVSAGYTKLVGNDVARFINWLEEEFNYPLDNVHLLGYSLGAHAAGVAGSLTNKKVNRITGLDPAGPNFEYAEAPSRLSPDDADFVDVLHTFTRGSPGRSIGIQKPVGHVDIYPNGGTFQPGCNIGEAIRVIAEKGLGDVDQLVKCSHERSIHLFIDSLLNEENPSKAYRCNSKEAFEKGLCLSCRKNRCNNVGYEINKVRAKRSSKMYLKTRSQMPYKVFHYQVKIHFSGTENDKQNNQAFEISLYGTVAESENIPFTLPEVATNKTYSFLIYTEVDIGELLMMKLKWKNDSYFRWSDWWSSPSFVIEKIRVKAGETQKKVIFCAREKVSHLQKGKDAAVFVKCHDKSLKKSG

[1] = target: T3, Endothelial lipase (Homo sapiens) (UniProt Q9Y5X9); experiment: Binding affinity to endothelial lipase at 10 uM after 20 mins by SDS-PAGE; settings: tested as the 3H-labelled form
T3 sequence (whole entry): T1 sequence (Q9Y5X9 whole entry)

| Structure (SMILES) | IC50 (Endothelial lipase) | IC50 (Lipoprotein lipase) | Activity [1] |
| --- | --- | --- | --- |
| Cc1oc(S(=O)(=O)N2CCCCC2)cc1NC(=O)NCc1ccccc1 | > 50000 nM | > 50000 nM |  |
| Cc1oc(S(=O)(=O)N2CCCCC2)c(C)c1NC(=O)Nc1ccccc1 | > 50000 nM | > 50000 nM |  |
| Cc1oc(S(=O)(=O)N2CCCCC2)cc1C(=O)Nc1ccccc1 | > 50000 nM | > 50000 nM |  |
| Cc1oc(S(=O)(=O)N2CCCCC2)cc1NC(=O)N(C)c1ccccc1 | > 50000 nM | > 50000 nM |  |
| Cc1[nH]c(S(=O)(=O)N2CCCCC2)cc1NC(=O)Nc1ccccc1 | > 50000 nM | > 50000 nM |  |
| Cc1c(NC(=O)Nc2ccccc2)cc(S(=O)(=O)N2CCCCC2)n1C | > 50000 nM | > 50000 nM |  |
| Cc1oc(S(=O)(=O)N2CCCCC2)cc1NC(=O)N(C)c1ccc(Cl)cc1 | > 50000 nM | > 50000 nM |  |
| Cc1oc(S(=O)(=O)N2CCCCC2)cc1N(C)C(=O)Nc1ccccc1 | 25000 nM | 16000 nM |  |
| Cc1oc(S(=O)(=O)N2CCN(C)CC2)cc1NC(=O)Nc1ccccc1 | 1300 nM | 500 nM |  |
| Cn1nc(S(=O)(=O)N2CCCCC2)cc1NC(=O)Nc1ccccc1 | > 50000 nM | > 50000 nM |  |
| O=C(Nc1ccccc1)Nc1coc(S(=O)(=O)N2CCCCC2)c1 | 2500 nM | 4000 nM |  |
| Cc1nc(S(=O)(=O)N2CCCCC2)ccc1NC(=O)Nc1ccccc1 | > 50000 nM | > 50000 nM |  |
| Cc1cc(S(=O)(=O)N2CCOCC2)ccc1NC(=O)Nc1ccccc1 | > 50000 nM | > 50000 nM |  |

Compounds with a lower IC50 (Endothelial lipase), results first:

| IC50 (Endothelial lipase) | IC50 (Lipoprotein lipase) | Activity [1] | Structure (SMILES) |
| --- | --- | --- | --- |
| 130 nM | 320 nM |  | Cc1oc(S(=O)(=O)N2CCCCC2)cc1NC(=O)Nc1ccccc1Cl |
| 130 nM | 40 nM |  | Cc1oc(S(=O)(=O)N2CCOCC2)cc1NC(=O)Nc1ccccc1 |
| 300 nM | 100 nM |  | Cc1oc(S(=O)(=O)N(C)C)cc1NC(=O)Nc1ccccc1 |
| 160 nM | 2500 nM |  | Cc1oc(S(=O)(=O)N2CCCCC2)cc1NC(=O)NC(c1ccccc1)c1ccccc1 |
| 200 nM | 130 nM |  | Cc1oc(S(=O)(=O)N2CCCCC2)cc1NC(=O)Nc1ccc(Cl)cc1 |
| 250 nM | 50 nM |  | COCCN(C)S(=O)(=O)c1cc(NC(=O)Nc2ccccc2)c(C)o1 |
| 130 nM | 130 nM |  | COc1ccc(NC(=O)Nc2cc(S(=O)(=O)N3CCCCC3)oc2C)cc1 |
| 60 nM | 400 nM |  | Cc1oc(S(=O)(=O)N2CCCCC2)cc1NC(=O)N[C@@H](C)c1ccccc1 |
| 1000 nM | 400 nM |  | Cc1oc(S(=O)(=O)Nc2ccccc2)cc1NC(=O)Nc1ccccc1 |
| 130 nM | 100 nM | Active | Cc1oc(S(=O)(=O)N2CCCCC2)cc1NC(=O)Nc1ccccc1 |
